14 compounds from publication PMC3793977, “High-Throughput Screening (HTS) and Hit Validation to Identify Small Molecule Inhibitors with Activity against NS3/4A proteases from Multiple Hepatitis C Virus Genotypes” (PLoS ONE, 2013) can be followed below.

The target of one data set is T1, full-length NS3/4A (Hepatitis C virus genotype 1b, UniProt Q9WMX2).
T1 construct: wild-type HCV NS3 (HCV polyprotein residues 1027–1657); His-tag (N); made in house
Put plainly: SPR binding assay (dissociation equilibrium constant KD). To be noted: 0–200 µM compound, single referenced with blank (ethanolamine). The protocol:
The full-length NS3/4A enzyme was prepared in a storage buffer (50 mM HEPES, pH 7.6, 500 mM NaCl, 1 mM DTT, 0.2% Triton X-100, and 20% glycerol) and immobilized on a CM5 sensor chip using standard amine-coupling at 25°C with running buffer HBS-P (10 mM HEPES, 150 mM NaCl, 0.05% surfactant P-20, pH 7.4) using a Biacore T100 instrument. Flow channels 1 and 3 were activated by 1-ethyl-3-(3-dimethylaminopropyl) carbodiimide hydrocholoride (EDC)/N-hydroxy succinimide (NHS) mixture, and the activated surface was blocked by ethanolamine (pH 8.5) as controls. The NS3/4A enzyme was diluted in 10 mM sodium acetate (pH 5.0), and immobilized to flow channel 4 after sensor surface activation with EDC/NHS with a 7 min injection followed by ethanolamine blocking on unoccupied surface area. NS3/4A immobilization level was ∼8,500 response units (RU). An unrelated reference protein (92 kDa) was also immobilized to flow channel 2 as another control to be compared with NS3/4A (74.6 kDa). Fifteen initial hit compounds were prepared as 10 mM DMSO stock solutions. Compound solutions with a series of increasing concentrations (0–200 µM at 1.5-fold dilution) were applied to all four channels at a 10 µL/min flow rate at 25°C. Sensorgrams were analyzed using Biaevaluation software 2.0.3, and response unit difference (ΔRU) values at each concentration were measured during the equilibration phase. Data were either single referenced with a blank (enthanolamine) or double referenced with both blank and reference protein RU values. SigmaPlot 11.0 was used to fit the data to a single rectangular hyperbolic curve to determine KD values. The hyperbola function, y = ymax·x/(KD+x), was used to plot response units and corresponding concentration, where y is the response, ymax is the maximum response, and x is the compound concentration.

In data set [1] the target is T2, full-length NS3/4A protease (genotype 1b) (Hepatitis C virus genotype 1b, UniProt Q9WMX2).
T2 construct: wild-type HCV NS3 (HCV polyprotein residues 1027–1657); His-tag (N); made in house
Put plainly: biochemical. To be noted: for IC50: purified full-length NS3/4A, genotype 1b wild-type; for inhibitory activity (SAR, in words): preliminary SAR of compound 12 analogues; for inhibition at 50 µM: read-out: percent inhibition at 50 µM compound concentration. As for the experimental part: All assays were done in duplicate in black 384-well plates (Matrix Technologies). […] 200 nL of 10 mM compound (50 µM final concentrations) were then added and incubated for 5 minutes. Enzyme reactions were initiated with 10 µL of substrate Ac-DE-Dap(QXL520)-EE-Abu-ψ-[COO]AS-C(5-FAMsp)-NH2 (Anaspec) (1 µM final concentration), incubated for 6 minutes, and quenched by 10 µL of 10% SDS as a stop solution. Fluorescence intensity was monitored with a POLARstar OPTIMA microplate reader (BMG LABTECH). Each plate contained a total of 32 positive and 32 negative controls.
A series of compound concentrations (0 to 200 µM final concentration at 2-fold serial dilution) in 100% DMSO were prepared in a 384-well plate. 20 µL of enzyme solution was distributed to wells, and 0.5 µL of varying concentration of compounds were added and incubated for 5 minutes. The enzyme reaction was initiated by adding 5 µL of the substrate, and its activity was continuously monitored for 6 minutes. The IC50 values were calculated by fitting with the Hill equation (1), with OriginPro 8.5 (OriginLab, Inc.) where y is percent inhibition, x is inhibitor concentration, n is the slope of the concentration–response curve (Hill slope), and Vmax is maximal inhibition from two to four independent assays. [drawing 1] (1)

In a further data set the target is T3, Trypsin (Homo sapiens, UniProt P07477).
T3 construct: purchased Sigma
The data set is described as follows: Inhibitor selectivity assay, trypsin (fluorometric). In kind it is biochemical. As for the experimental part:
(§1) To test for selectivity, two human serine proteases, Trypsin and Chymotrypsin (Sigma), were tested with the top two hit compounds from HTS using a fluorometric assay. The fluorogenic substrates used in this study were N-benzoyl-L-Arg-7-amido-4-methylcoumarin (Sigma) and N-succinyl-Ala-Ala-Phe-7-amido-4- methylcoumarin (Sigma) for trypsin and chymotrypsin, respectively. All assays were performed in 384-well black plates (Corning) in a total volume of 24 µL of PBS (pH 7.4) buffer containing 0.01% Triton, 0.1 mg/mL BSA, and 2 mM GSH in triplicate. A series of compound concentrations (0 to 200 µM final concentration at 2-fold serial dilution) in 100% DMSO was prepared in a 384-well plate. 20 µL of trypsin (0.01 mg/mL) and chymotrypsin (0.0001 mg/mL) solutions were distributed into wells, and 0.5 µL of varying concentration of compounds were added and incubated for 10 minutes. The enzyme reaction was initiated by adding 5 µL of the substrate (50 µM final concentration), and fluorescence intensity was continuously monitored at excitation/emission wavelengths of 350 nm/460 nm for 10 minutes.

A short description of data set [2]: Microsomal stability assay. In kind it is in vitro ADME, mouse. The settings on record: Balb/c, mouse, microsomes, pH 7.4. The protocol:
A typical incubation mixture (100 µL total volume) for the metabolic stability studies contained 1 µM (final concentration) test compounds, 0.5 mg/mL microsomal protein (pooled Balb/c mouse liver microsomes prepared as described previously), 100 mM Tris-HCl buffer (pH7.4), and NADPH-generating system (5 mM isocitric acid, 0.2 unit/mL isocitric acid dehydrogenase, 5 mM magnesium chloride, 1 mM NADP^+). After pre-incubation at 37°C for 5 minutes, the reactions were started by addition of NADP^+ and further incubated for another 0, 5, 10, and 20 minutes. For control experiments, NADPH and/or liver microsomes were omitted from these incubations. The reactions were terminated by adding 100 µL ice-cold acetonitrile containing phenytoin (1 µM) as an internal standard and kept on ice for 30 minutes, followed by centrifugation at 16,100 g for 15 minutes to obtain the supernatant. Aliquots (5 µL) were then analyzed for substrate disappearance using liquid chromatography-tandem mass spectrometry (Agilent 1200 HPLC interfaced with Applied Biosystems Qtrap 3200) equipped with an electrospray ion source. Chromatographic separation was carried out with a Waters XTerra MS C18 column (2.1×50 mm, 3.5 µm; Agilent Technologies, Santa Clara, CA). The mobile phases consisted of solvent A (0.1% (v/v) aqueous formic acid) and solvent B (acetonitrile). A 250 µL/min flow rate gradient was developed for each test compound over 10 minutes (Table S2 in File S1). Mass detection of test substrates and internal standard were followed in a positive ion mode by examining multiple reaction monitoring (MRM) pairs. The spraying needle voltage was set at 5000 V. Curtain gas was set at 20; gas 1 and gas 2 were set at 45 and 50, respectively; collision assisted dissociation gas was at medium; and the source heater probe temperature was at 500°C. The test compounds were quantified by comparing the ratio of ion currents obtained for the substrates and an internal standards calibration curve. Data acquisition and processing were accomplished using Analyst software (version 1.4.1; Applied Biosystems). Apparent half-lives (t1/2) for the disappearance of parent drugs were calculated from the pseudo-first-order rate constants (ke) obtained by linear regression of plots of log [drug remaining] versus time (GraphPad Prism 5 software, La Jolla, CA) using the equation: t1/2 = 0.693/ke.

For the next data set, the target named is T4, Chymotrypsin (Homo sapiens, UniProt P17538).
T4 construct: purchased Sigma
Put plainly: Inhibitor selectivity assay, chymotrypsin (fluorometric). The class given is biochemical. As for the experimental part: as §1

Setting [3] is: read-out: IC50 Full-length NS3/4A.

SMILES strings stand for the structures. “Also recorded” adds a separate entry of the source. Where two headings read alike, the source gives them in different places.

T1 sequence (Q9WMX2 1658-1711): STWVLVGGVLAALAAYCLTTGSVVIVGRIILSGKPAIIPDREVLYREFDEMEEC
T1 sequence (Q9WMX2 1027-1657): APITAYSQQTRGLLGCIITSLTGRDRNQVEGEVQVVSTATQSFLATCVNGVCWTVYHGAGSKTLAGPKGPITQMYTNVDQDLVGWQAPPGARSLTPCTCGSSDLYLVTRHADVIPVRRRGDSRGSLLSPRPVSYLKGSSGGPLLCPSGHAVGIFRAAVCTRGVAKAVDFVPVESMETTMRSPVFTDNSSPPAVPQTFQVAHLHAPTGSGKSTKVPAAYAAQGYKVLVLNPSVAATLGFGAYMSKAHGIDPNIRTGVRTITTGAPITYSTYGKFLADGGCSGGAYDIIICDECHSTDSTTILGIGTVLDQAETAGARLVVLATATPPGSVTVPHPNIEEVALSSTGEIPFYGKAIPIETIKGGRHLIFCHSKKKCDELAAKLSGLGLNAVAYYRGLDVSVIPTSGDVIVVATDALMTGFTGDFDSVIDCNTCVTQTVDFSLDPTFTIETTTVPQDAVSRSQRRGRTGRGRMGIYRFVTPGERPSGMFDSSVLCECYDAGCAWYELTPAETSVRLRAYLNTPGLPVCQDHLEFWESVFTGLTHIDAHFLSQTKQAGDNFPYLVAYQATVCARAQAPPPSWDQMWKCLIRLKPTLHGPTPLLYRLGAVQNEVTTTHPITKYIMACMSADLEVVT
T2 sequence (Q9WMX2 1658-1711): as the sequence (Q9WMX2 1658-1711) above
T2 sequence (Q9WMX2 1027-1657): as the sequence (Q9WMX2 1027-1657) above
T4 sequence (P17538 19-263): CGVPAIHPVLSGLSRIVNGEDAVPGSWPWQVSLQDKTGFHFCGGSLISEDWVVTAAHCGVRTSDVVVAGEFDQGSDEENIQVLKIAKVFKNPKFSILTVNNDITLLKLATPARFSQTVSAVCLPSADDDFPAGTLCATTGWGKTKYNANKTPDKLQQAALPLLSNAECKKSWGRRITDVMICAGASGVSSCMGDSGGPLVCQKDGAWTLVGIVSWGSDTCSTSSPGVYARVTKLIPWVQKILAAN

On to `O=C1c2c(O)ccc(O)c2C(=O)c2c(NCCNCCO)ccc(NCCNCCO)c21` [Compound 4, mitoxantrone, reference compound], for which the “SPR binding pattern to NS3/4A” value at full-length NS3/4A was “non-specific binding patterns”. The IC50 was 3.1 ± 0.1 µM in data set [1] (IC50 Full-length NS3/4A), above 100 µM at Trypsin (human trypsin) and above 100 µM against Chymotrypsin (human chymotrypsin). In addition, the inhibition at 100 µM on Trypsin (100 µM compound, read-out: Trypsin % Inh at 100 µM) stood at 22%; at Chymotrypsin (100 µM compound, read-out: Chymotrypsin % Inh at 100 µM), 0%. Besides, the microsomal stability in data set [2] (1 µM) was 25 min. Moreover, the half-life (commonly how long it takes for the measured level to halve) at 1 µM in data set [2] came to 25.4 min.

Turning to `Cc1ccc(S(=O)(=O)Nc2ccccc2C(=O)Nc2nc3c(Br)cccc3s2)cc1` [Compound 15], the “SPR binding pattern to NS3/4A” value at full-length NS3/4A is “lack of binding; also recorded: did not bind”.

`O=C(Cc1csc(NS(=O)(=O)c2ccccc2)n1)Nc1ccccc1` [Compound 16]: in data set [1] (setting [3]), the IC50 amounted to 24.9 µM.

Consider `Cc1cc(Br)ccc1NC(=O)Cc1csc(NS(=O)(=O)c2ccccc2)n1` [Compound 17], for which the IC50 in data set [1] (setting [3]) amounted to 23.5 µM.

Take `COc1ccc(S(=O)(=O)Nc2nc(CC(=O)Nc3ccc(Br)c(C)c3)cs2)cc1` [Compound 18]: the “inhibitory activity (SAR, in words)” value in data set [1] is “Moderate activity”. Besides, the IC50 in data set [1] (setting [3]) worked out at 14.4 µM.

In the case of `COc1ccc(S(=O)(=O)Nc2nc(CC(=O)Nc3ccc(Br)cc3C)cs2)cc1` [Compound 19], the “inhibitory activity (SAR, in words)” value in data set [1] was “Moderate activity”. The IC50 in data set [1] (setting [3]) came out at 6.2 µM.

Take `Cc1ccc(S(=O)(=O)Nc2nc(CC(=O)Nc3ccc(Br)cc3C)cs2)cc1` [Compound 20]: in data set [1], the “inhibitory activity (SAR, in words)” value is recorded as “complete activity loss” and the inhibition at 50 µM is 29.1%. In data set [1] (setting [3]), the IC50 is above 100 µM.

Consider `CCc1ccc(NC(=O)Cc2csc(NS(=O)(=O)c3ccc(C)cc3)n2)cc1` [Compound 21], for which, in data set [1], the “inhibitory activity (SAR, in words)” value is recorded as “complete activity loss” and the inhibition at 50 µM is 7.2%. Further, in data set [1] (setting [3]), the IC50 is above 100 µM.

`O=C(Cc1csc(NS(=O)(=O)c2ccccc2)n1)Nc1cccc(F)c1` [Compound 22]: the IC50 in data set [1] (setting [3]) was above 100 µM. The inhibition at 50 µM in data set [1] was 41.7%.

As to `O=C(Cc1csc(NS(=O)(=O)c2ccc(Cl)cc2)n1)Nc1cccc(F)c1` [Compound 23], the “inhibitory activity (SAR, in words)” value in data set [1] was “Moderate activity”. Moreover, in data set [1] (setting [3]), the IC50 amounted to 24.2 µM.

Consider `Cc1cccc(NC(=O)Cc2csc(NS(=O)(=O)c3ccc(Cl)cc3)n2)c1` [Compound 24], for which the “inhibitory activity (SAR, in words)” value in data set [1] was “Moderate activity”. Also, the IC50 in data set [1] (setting [3]) is 21.8 µM.

For the compound `Cc1ccc(NC(=O)Cc2csc(NS(=O)(=O)c3ccc(Cl)cc3)n2)cc1Cl` [Compound 25], the IC50 in data set [1] (setting [3]) is above 100 µM. Also, the inhibition at 50 µM in data set [1] amounted to 29.2%.

As for `Cc1ccc(S(=O)(=O)Nc2ccccc2C(=O)Nc2nc3c(C)ccc(C)c3s2)cc1` [Compound 26], in data set [1] (setting [3]), the IC50 was above 100 µM. Besides, the inhibition at 50 µM in data set [1] amounted to 0%.

For the compound `Cc1ccc(S(=O)(=O)Nc2ccccc2C(=O)Nc2nc3c(Br)cccc3s2)cc1` [Compound 27], the “inhibitory activity (SAR, in words)” value in data set [1] was “activity is regained”. In data set [1] (setting [3]), the IC50 worked out at 15.6 µM.
